Experimental findings from patent US6228853A, “Pyrrolopyrrolone derivatives as inhibitors of neutrophil elastase” (Glaxo Wellcome Inc., priority 1997, dated 2001) are described below.

One assay addresses T1, elastase (Homo sapiens, UniProt P08246).
T1 construct: fresh, heparinised human whole blood; endogenous in cells; host or cells: leukocytes (neutrophils) of fresh heparinised human whole blood
T1 sequence (P08246 30-267): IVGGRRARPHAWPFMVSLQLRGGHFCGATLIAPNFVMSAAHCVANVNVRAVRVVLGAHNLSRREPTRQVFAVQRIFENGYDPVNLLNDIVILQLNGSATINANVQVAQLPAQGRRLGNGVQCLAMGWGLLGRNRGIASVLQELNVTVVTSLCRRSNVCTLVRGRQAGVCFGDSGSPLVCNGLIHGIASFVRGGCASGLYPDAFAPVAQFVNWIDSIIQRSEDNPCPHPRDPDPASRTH
Nature of the assay: Human whole blood elastase inhibition assay. The assay is classed as cell-based. As to conditions: heparinised, 30 minutes at 37° C. Here is the method: Human whole blood elastase inhibition assay
Triplicate aliquots of fresh, heparinised human whole blood (200 μl) are added to appropriately diluted samples (10 μl) of compounds under test. […] Samples are mixed thoroughly by pipette, and are then incubated for 30 minutes at 37° C. Cold red cell lysis buffer (750 μl of 155 mM ammonium chloride, 0.12 mM EDTA, 10 mM potassium bicarbonate, pH 7.4) is then added. Tubes are capped, inverted several times, and maintained at 4° C. for 15 minutes, inverting every 5 minutes. After centrifugation at 250 g for 10 minutes, at 4° C., the resulting pelleted cells are washed. The wash is with saline (300 μl), followed by centrifugation at 100 g for 10 minutes at 4° C. Pellets are washed twice more, before resuspension of the final cell pellet in buffer (200 μl of 100 mM Tris, 300 mM NaCl, 1% (w/v) HTAB, pH 8.6). Samples are stored at -20° C. After freeze-thawing of the samples four times, elastase activity is determined by a calorimetric assay in 50 mM Tris, 150 mM NaCl, 0.6 mM MeO-Succ-Ala-Ala-Ala-Pro-Val-pNA at pH 8.6, measuring the rate of increase in absorbance at 405 nm.

For assay [1], the target named is T2, human neutrophil elastase (Homo sapiens, UniProt P08246).
T2 sequence (P08246 30-267): T1 sequence (P08246 30-267)
Kind of assay: In vitro assay of human neutrophil elastase. The format is biochemical. As to conditions: in vitro elastase test; purified human neutrophil elastase 11.8 nM, pH 8.6, 15 min at 30° C., 0.6 mM MeO-succinyl-alanyl-alanyl-prolyl-valyl-p-nitroanilide. Here is the method:
In vitro assays of human neutrophil elastase Assay contents: 50 mM Tris/HCl (pH 8.6) 150 mM NaCl 11.8 nM purified human neutrophil elastase Suitable concentrations of compound under test diluted with water from a 10 mM stock solution in dimethylsulphoxide. Values above are final concentrations after the addition of substrate solution (see below). The mixture above is incubated for fifteen minutes at 30° C. at which time the remaining elastase activity is measured for 10 minutes in a BioTek 340i plate-reader, after the addition of 0.6 mM MeO-succinyl-alanyl-alanyl-prolyl-valyl-p-nitroanilide. The rate of increase in absorbance at 405 nm is proportional to elastase activity. Enzyme activity is plotted against concentration of inhibitor and an IC50 determined using curve fitting software.

The next assay relates to intracellular elastase. Nature of the assay: Oral in vivo hamster model using IL-8 induced lung infiltrates for assessment of intracellular elastase inhibition. The note with it: in vivo hamster IL-8 test, at a dose of less than 10 mg/kg. Here is the method: In vivo activity of inhibitors of human neutrophil elastase:
An oral in vivo model using IL-8 induced lung infiltrates for the assessment of intracellular elastase inhibition
Adult hamsters (100-150 g) are randomised into groups (n=4) and fasted overnight. Under gaseous anaesthetic (3% isofluorane) animals are dosed orally with 1 mL/100 g water as vehicle or containing predissolved compounds. Either at the same time, or subsequently under anaesthetic, animals are dosed intratracheally with 1 ug recombinant human IL-8 in 100 uL sterile saline. Six hours after IL-8 dosing animals are sacrificed using intraperitoneal pentobarbitone. The lungs are lavaged with 2×2.5 mL sterile saline and femurs are removed by dissection.
Intracellular elastase is prepared from neutrophils collected by lavage and from femoral bone marrow. This is achieved by sonication of the neutrophils and centrifugation to yield intracellular granules. These are disrupted by freeze/thawing and sonication. Elastase and myeloperoxidase assays are then performed on these samples to assess the efficacy of the compounds and to normalise for neutrophil recovery.

pIC50: −log10 of the molar value. Where a name gives a salt, the structure may show the parent alone.

In general, pIC50 refers to −log10 of the IC50, conventionally taken in molar units. The low end stands for a large IC50, the high end for a small IC50. With `CC(C)[C@H]1C(=O)N(S(C)(=O)=O)[C@H]2CCN(C(=O)C3CN(Cc4ccccc4)C3)[C@H]12` (relative stereo) [Example 2, rel-(3R,3aR,6aS)-4-(1-Benzylazetidine-3-carbonyl)-3-isopropyl-1-methanesulfonyl-hexahydro-pyrrolo[3,2-b]pyrrol-2-one hydrochloride], the figures for the pIC50 (on elastase; in assay [1]) were 6.09 and 6.64, respectively. For `CC(C)[C@H]1C(=O)N(S(C)(=O)=O)[C@H]2CCN(C(=O)C3CN(CC(C)(C)C)C3)[C@H]12.Cl` (relative stereo) [Example 3, rel-(3R,3aR,6aS)-4-[1-(2,2-Dimethyl-propyl)-azetidine-3-carbonyl]-3-isopropyl-1-methanesulfonyl-hexahydro-pyrrolo[3,2-b]pyrrol-2-one hydrochloride], the duration of action entry in the assay with intracellular elastase was “at least 6 hours”.

Take `CC(C)[C@H]1C(=O)N(S(C)(=O)=O)[C@H]2CCN(C(=O)C3CN(Cc4c(Cl)cccc4Cl)C3)[C@H]12` (relative stereo) [Example 4, rel-(3R,3aR,6aS)-4-[1-(2,6-Dichloro-benzyl)-azetidine-3-carbonyl]-3-isopropyl-1-methanesulfonyl-hexahydropyrrolo[3,2-b]pyrrol-2-one hydrochloride]: the pIC50 at elastase was 5.92; in assay [1], 6.68. Take `CC(C)[C@H]1C(=O)N(S(C)(=O)=O)[C@H]2CCN(C(=O)C3CN(CC4CC4)C3)[C@H]12` (relative stereo) [Example 1, rel-(3R,3aR,6aS)-4-(1-CyclopropyImethyl-azetidine-3carbonyl)-3-isopropyl-1-methanesulfonyl-hexahydropyrrolo[3,2-b]pyrrol-2-one hydrochloride]: the pIC50 on elastase was 5.27; in assay [1], 6.71. As for `CCCCN1CC(C(=O)N2CC[C@H]3[C@H]2[C@@H](C(C)C)C(=O)N3S(C)(=O)=O)C1` (relative stereo) [Example 5, rel-(3R,3aR,6aS)-4-(1-Butyazetidine-3-carbonyl)-3-isopropyl-1-methanesulfonyl-hexahydro-pyrrolo[3,2-b]pyrrol-2-one hydrochloride], the figures for the pIC50 (against elastase; in assay [1]) were 5.77 and 7.03, respectively.
